Reference: paper PMC12380353, “MK-8527 is a novel inhibitor of HIV-1 reverse transcriptase translocation with potential for extended-duration dosing” (PLOS Biology, 2025)

Target: T1, human mitochondrial DNA polymerase γ (Homo sapiens, UniProt P54098)
T1 sequence (P54098 1-1239): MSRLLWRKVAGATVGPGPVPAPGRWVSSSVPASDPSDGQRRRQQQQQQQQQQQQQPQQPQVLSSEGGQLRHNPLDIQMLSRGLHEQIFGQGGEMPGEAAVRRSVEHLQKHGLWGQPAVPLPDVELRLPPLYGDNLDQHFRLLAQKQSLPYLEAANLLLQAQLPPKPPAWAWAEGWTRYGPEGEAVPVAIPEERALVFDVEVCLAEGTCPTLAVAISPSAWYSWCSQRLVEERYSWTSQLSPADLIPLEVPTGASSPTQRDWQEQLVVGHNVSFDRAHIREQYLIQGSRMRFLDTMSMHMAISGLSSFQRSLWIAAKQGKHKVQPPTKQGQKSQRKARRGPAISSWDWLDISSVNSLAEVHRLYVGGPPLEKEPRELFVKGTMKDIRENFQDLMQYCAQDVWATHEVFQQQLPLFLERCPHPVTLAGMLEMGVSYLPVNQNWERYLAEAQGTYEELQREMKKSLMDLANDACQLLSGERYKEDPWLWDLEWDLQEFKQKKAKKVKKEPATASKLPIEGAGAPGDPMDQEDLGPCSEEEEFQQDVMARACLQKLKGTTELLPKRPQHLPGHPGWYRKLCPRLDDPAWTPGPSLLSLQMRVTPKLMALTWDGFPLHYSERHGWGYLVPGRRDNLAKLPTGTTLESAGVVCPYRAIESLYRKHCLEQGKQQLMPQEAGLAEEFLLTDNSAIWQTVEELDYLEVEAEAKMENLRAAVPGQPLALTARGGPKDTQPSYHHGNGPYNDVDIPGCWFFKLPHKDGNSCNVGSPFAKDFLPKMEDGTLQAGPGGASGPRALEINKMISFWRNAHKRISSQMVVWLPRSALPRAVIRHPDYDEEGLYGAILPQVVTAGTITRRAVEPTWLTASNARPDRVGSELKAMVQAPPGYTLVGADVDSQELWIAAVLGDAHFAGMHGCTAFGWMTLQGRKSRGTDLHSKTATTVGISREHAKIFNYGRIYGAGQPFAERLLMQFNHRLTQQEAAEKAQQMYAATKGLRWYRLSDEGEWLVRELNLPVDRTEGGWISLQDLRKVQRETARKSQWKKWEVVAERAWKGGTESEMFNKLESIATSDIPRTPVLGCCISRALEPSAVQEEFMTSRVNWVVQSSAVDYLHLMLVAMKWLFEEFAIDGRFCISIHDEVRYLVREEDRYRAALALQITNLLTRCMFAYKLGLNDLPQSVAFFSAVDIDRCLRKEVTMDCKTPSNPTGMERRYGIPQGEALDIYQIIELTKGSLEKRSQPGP
Test: Human mitochondrial DNA polymerase γ inhibition assay
Type: biochemical
Details: highest concentration tested 200 µM
Protocol: The activities of human DNA polymerases α, β, and γ were measured in radiolabeled nucleotide incorporation assays. TP was prepared as a 10-point titration with 3-fold serial dilution in water. Reaction buffers for the DNA polymerase α and β assays both contained 20 mM Tris pH 7.5, 10 mM MgCl2, 50 μM EDTA, 200 μg/mL bovine serum albumin (BSA), 2 mM dithiothreitol (DTT), 1.6 μM each of dNTP (dATP, dCTP, dGTP, and dTTP), 20 μCi/mL [α33P]dATP, 0.1 mg/mL gapped activated fish sperm DNA template, test compound, and 0.005 U/μL DNA polymerase α or 0.0025 U/μL DNA polymerase β. The reaction buffer for DNA polymerase γ contained 20 mM Tris pH 8, 10 mM MgCl2, 50 mM KCl, 100 μg/mL BSA, 2 mM β-mercaptoethanol, 10 μM of each dNTP (dATP, dCTP, dGTP, and dTTP), 20 μCi/mL [α33P]dATP, 0.04 mg/mL gapped activated fish sperm DNA template, test compound, and 0.0003 μg/μL DNA polymerase γ. The 50-μL reactions were incubated at room temperature for 30 min (for β and γ) or 90 min (for α) before terminating with the addition of 50 μL 500 mM EDTA. The reaction mixtures were transferred to a Millipore DE81 filter plate (EMD Millipore; Hayward, CA), washed with 0.5 M sodium phosphate pH 7.0, and dried. After addition of 40 μL scintillant to each well, the incorporation of labeled dATP was determined with a microplate counter (TopCount NXT HTS; PerkinElmer, Shelton, CA, USA).

C#C[C@]1(COP(=O)(O)OP(=O)(O)OP(=O)(O)O)O[C@@H](n2ccc3c(N)nc(Cl)nc32)C[C@@H]1O [MK-8527-TP]
Inhibitory activity: no inhibitory activity
